Experimental data from US11717508B2, “Compounds, compositions, and methods for inhibiting bacterial growth” (priority 2016, dated 2023).
Where “and” joins values, the source holds several entries; their conditions need not be identical. Identical values can stand only once. Like-named read-outs stand apart in the source and are kept apart here.

System: DosRST regulon
Assay type: cell-based
Details: for Counts per million (CPM) WT_HC103A: replicates 1, 2

O=C(Nc1cccc(O)c1)c1cccc(NC(=O)c2cccs2)c1 [HC103A, N-[3-[(3 hydroxyphenyl)carbamoyl]phenyl]thiophene-2-carboxamide]
WT DMSO/WT HC103A fold change (gene MT2019 (Rv1967)): 0.1846 | log2 Fold change (gene MT2019 (Rv1967)): −2.437 | Counts per million (CPM) WT_HC103A (gene MT2019 Rv1967): 58.15 CPM and 26.3 CPM | WT DMSO/WT HC103A fold change (gene MT2020 Rv1968): 0.199 | log2 Fold change (gene MT2020 Rv1968): −2.329 | Counts per million (CPM) WT_HC103A (gene MT2020 Rv1968): 72.37 CPM and 31.88 CPM | WT DMSO/WT HC103A fold change (gene MT2021 (Rv1969)): 0.2997 | log2 Fold change (gene MT2021 (Rv1969)): −1.738 | Counts per million (CPM) WT_HC103A (gene MT2021 Rv1969): 29.34 CPM and 13.9 CPM | WT DMSO/WT HC103A fold change (gene MT2022 (Rv1970 lprM)): 0.2084 | log2 Fold change (gene MT2022 (Rv1970 lprM)): −2.263 | Counts per million (CPM) WT_HC103A (gene MT2022 Rv1970 lprM): 41.74 CPM and 24.09 CPM | WT DMSO/WT HC103A fold change (gene MT2023 (Rv1971)): 0.2079 | log2 Fold change (gene MT2023 (Rv1971)): −2.266 | Counts per million (CPM) WT_HC103A (gene MT2023 Rv1971): 53.39 CPM and 33.31 CPM | WT DMSO/WT HC103A fold change (gene MT2024 (Rv1972)): 0.3791 | log2 Fold change (gene MT2024 (Rv1972)): −1.399 | Counts per million (CPM) WT_HC103A (gene MT2024 Rv1972): 12.78 CPM and 9.286 CPM | WT DMSO/WT HC103A fold change (gene MT2048 Rv1992c ctpG): 0.2903 | log2 Fold change (gene MT2048 Rv1992c ctpG): −1.784 | Counts per million (CPM) WT_HC103A (gene MT2048 Rv1992c ctpG): 531.4 CPM and 326.8 CPM | WT DMSO/WT HC103A fold change (gene MT2052 (Rv1996)): 0.003741 | log2 Fold change (gene MT2052 (Rv1996)): −8.063 | Counts per million (CPM) WT_HC103A (gene MT2052 Rv1996): 107.1 CPM and 83.44 CPM | WT DMSO/WT HC103A fold change (gene MT2053 (Rv1997 ctpF)): 0.0183 | log2 Fold change (gene MT2053 (Rv1997 ctpF)): −5.772 | Counts per million (CPM) WT_HC103A (gene MT2053 Rv1997 ctpF): 57.85 CPM and 33.12 CPM | WT DMSO/WT HC103A fold change (gene MT2059 (Rv2003c)): 0.1063 | log2 Fold change (gene MT2059 (Rv2003c)): −3.234 | Counts per million (CPM) WT_HC103A (gene MT2059 Rv2003c): 93.54 CPM and 62.92 CPM | WT DMSO/WT HC103A fold change (gene MT2060 Rv2004c): 0.05469 | log2 Fold change (gene MT2060 Rv2004c): −3.95 | Counts per million (CPM) WT_HC103A (gene MT2060 Rv2004c): 219.7 CPM and 144.4 CPM | WT DMSO/WT HC103A fold change (gene MT2061 Rv2005c): 0.04809 | log2 Fold change (gene MT2061 Rv2005c): −4.378 | Counts per million (CPM) WT_HC103A (gene MT2061 Rv2005c): 138.4 CPM and 91.76 CPM | WT DMSO/WT HC103A fold change (gene MT2062 Rv2006 otsB): 0.1408 | log2 Fold change (gene MT2062 Rv2006 otsB): −2.828 | Counts per million (CPM) WT_HC103A (gene MT2062 Rv2006 otsB): 107.5 CPM and 97.41 CPM | WT DMSO/WT HC103A fold change (gene MT2063 Rv2007c fdxA): 0.08678 | log2 Fold change (gene MT2063 Rv2007c fdxA): −4.765 | Counts per million (CPM) WT_HC103A (gene MT2063 Rv2007c fdxA): 527.8 CPM and 132.3 CPM | WT DMSO/WT HC103A fold change (gene MT2086 (Rv2027c)): 0.2521 | log2 Fold change (gene MT2086 (Rv2027c)): −1.988 | Counts per million (CPM) WT_HC103A (gene MT2086 Rv2027c): 73.2 CPM and 62.79 CPM | WT DMSO/WT HC103A fold change (gene MT2087 Rv2028c): 0.02878 | log2 Fold change (gene MT2087 Rv2028c): −5.119 | Counts per million (CPM) WT_HC103A (gene MT2087 Rv2028c): 35.92 CPM and 8.702 CPM | WT DMSO/WT HC103A fold change (gene MT2088): 0.01366 | log2 Fold change (gene MT2088): −6.194 | Counts per million (CPM) WT_HC103A (gene MT2088): 84.09 CPM and 21.3 CPM | WT DMSO/WT HC103A fold change (gene MT2089 Rv2030c): 0.01775 | log2 Fold change (gene MT2089 Rv2030c): −5.816 | Counts per million (CPM) WT_HC103A (gene MT2089 Rv2030c): 451.1 CPM and 80.39 CPM | WT DMSO/WT HC103A fold change (gene MT2090): 0.0164 | log2 Fold change (gene MT2090): −5.93 | WT DMSO/WT HC103A fold change (gene MT2091 Rv2032): 0.01154 | log2 Fold change (gene MT2091 Rv2032): −6.438 | WT DMSO/WT HC103A fold change (gene MT2445.1): 0.4105 | log2 Fold change (gene MT2445.1): −1.285 | WT DMSO/WT HC103A fold change (gene MT2556 Rv2483c): 0.3592 | log2 Fold change (gene MT2556 Rv2483c): −1.477 | WT DMSO/WT HC103A fold change (gene MT2557 Rv2484c): 0.3196 | log2 Fold change (gene MT2557 Rv2484c): −1.646 | WT DMSO/WT HC103A fold change (gene MT2574 Rv2499c): 0.3086 | log2 Fold change (gene MT2574 Rv2499c): −1.696 | WT DMSO/WT HC103A fold change (gene MT2576): 0.2991 | log2 Fold change (gene MT2576): −1.741 | WT DMSO/WT HC103A fold change (gene MT2577 Rv2502c accD1): 0.3334 | log2 Fold change (gene MT2577 Rv2502c accD1): −1.585 | WT DMSO/WT HC103A fold change (gene MT2578 Rv2503c scoB): 0.2841 | log2 Fold change (gene MT2578 Rv2503c scoB): −1.815 | WT DMSO/WT HC103A fold change (gene MT2579 Rv2504c scoA): 0.281 | log2 Fold change (gene MT2579 Rv2504c scoA): −1.831 | WT DMSO/WT HC103A fold change (gene MT2698 Rv2623): 0.006998 | log2 Fold change (gene MT2698 Rv2623): −7.159 | WT DMSO/WT HC103A fold change (gene MT2699 Rv2624c): 0.01316 | log2 Fold change (gene MT2699 Rv2624c): −6.247 | WT DMSO/WT HC103A fold change (gene MT2700 Rv2625c): 0.007921 | log2 Fold change (gene MT2700 Rv2625c): −6.98 | WT DMSO/WT HC103A fold change (gene MT2701 Rv2626c): 0.00844 | log2 Fold change (gene MT2701 Rv2626c): −6.888 | WT DMSO/WT HC103A fold change (gene MT2702 Rv2627c): 0.005338 | log2 Fold change (gene MT2702 Rv2627c): −7.55 | WT DMSO/WT HC103A fold change (gene MT2703 Rv2678): 0.02894 | log2 Fold change (gene MT2703 Rv2678): −5.111 | WT DMSO/WT HC103A fold change (gene MT2704 Rv2629): 0.05675 | log2 Fold change (gene MT2704 Rv2629): −4.139 | WT DMSO/WT HC103A fold change (gene MT2705 Rv2630): 0.07365 | log2 Fold change (gene MT2705 Rv2630): 3.763 | WT DMSO/WT HC103A fold change (gene MT2707 Rv2631): 0.07456 | log2 Fold change (gene MT2707 Rv2631): −3.745 | WT DMSO/WT HC103A fold change (gene MT3171 Rv3086 adhD): 0.4045 | log2 Fold change (gene MT3171 Rv3086 adhD): −1.306 | WT DMSO/WT HC103A fold change (gene MT3210): 0.0164 | log2 Fold change (gene MT3210): −5.93 | WT DMSO/WT HC103A fold change (gene MT3212 Rv3127): 0.01248 | log2 Fold change (gene MT3212 Rv3127): −6.324 | WT DMSO/WT HC103A fold change (gene MT3216 Rv3130c): 0.005779 | log2 Fold change (gene MT3216 Rv3130c): −7.435 | WT DMSO/WT HC103A fold change (gene MT3217 Rv3131): 0.004749 | log2 Fold change (gene MT3217 Rv3131): −7.718 | WT DMSO/WT HC103A fold change (gene MT3218 Rv3132c): 0.04611 | log2 Fold change (gene MT3218 Rv3132c): −4.439 | WT DMSO/WT HC103A fold change (gene MT3219 Rv3133c): 0.0294 | log2 Fold change (gene MT3219 Rv3133c): −5.088 | WT DMSO/WT HC103A fold change (gene MT3220 Rv3134c): 0.02054 | log2 Fold change (gene MT3220 Rv3134c): −5.606 | WT DMSO/WT HC103A fold change (gene MT3427): 0.4435 | log2 Fold change (gene MT3427): −1.173 | WT DMSO/WT HC103A fold change (gene MT3443 Rv3340 metC): 0.3114 | log2 Fold change (gene MT3443 Rv3340 metC): −1.683 | WT DMSO/WT HC103A fold change (gene MT3444 Rv3341 metA): 0.2535 | log2 Fold change (gene MT3444 Rv3341 metA): −1.924 | WT DMSO/WT HC103A fold change (gene MT3608 Rv3504 fadE26): 0.3558 | log2 Fold change (gene MT3608 Rv3504 fadE26): −1.491 | WT DMSO/WT HC103A fold change (gene MT3634 Rv3531c): 0.2978 | log2 Fold change (gene MT3634 Rv3531c): −1.748 | WT DMSO/WT HC103A fold change (gene MT3656 Rv3552): 0.3116 | log2 Fold change (gene MT3656 Rv3552): −1.582 | WT DMSO/WT HC103A fold change (gene MT3716 Rv3614c): 0.3057 | log2 Fold change (gene MT3716 Rv3614c): −1.71 | WT DMSO/WT HC103A fold change (gene MT3717 Rv3615c): 0.3122 | log2 Fold change (gene MT3717 Rv3615c): −1.679 | WT DMSO/WT HC103A fold change (gene MT3718 Rv3616c): 0.3166 | log2 Fold change (gene MT3718 Rv3616c): −1.659
